The target in series [1] is T1, wild-type RePC (Rhizobium etli, UniProt Q2K340). In kind it is biochemical.
Series [2] concerns the target T1, wild-type RePC. In kind it is biochemical. This is another data set of the same source.
Series [3] addresses T1, wild-type RePC. It counts as biochemical. This is another data set of the same source.
The subject of series [4] is wild-type RePC (pyruvate carboxylase from R. etli). Description: Pyruvate carboxylation activity, malate dehydrogenase coupled assay. As to conditions: for Ka acetyl-CoA / Vmax: Hill fit eqn (4). In kind it is biochemical, Rhizobium etli.
Series [5] deals with T1, wild-type RePC. Description: HCO3^−-dependent ATPase activity in the absence of pyruvate. In kind it is biochemical.
The subject of series [6] is NC(=O)OP(=O)(O)O. Description: purified protein, by the assay type. Conditions: other: K1119Q, no free biotin; pH 7.5; 25.0 °C.
The target in series [7] is T2, K1119Q RePC mutant (Rhizobium etli, UniProt Q2K340, K1119Q). Description: HCO3^−-dependent ATPase reaction, K1119Q mutant. In kind it is biochemical.
In series [8] the target is T2, K1119Q RePC mutant.
In series [9] the target is T882A RePC mutant (Rhizobium etli, UniProt Q2K340, T882A).
Where [10] appears, read: saturating acetyl-CoA and substrates.
[11] abbreviates: acetyl-CoA varied, 0.5 mM free Mg^2+.
Setting [12] is: acetyl-CoA varied, 1.0 mM free Mg^2+.
The mark [13] stands for this setting: acetyl-CoA varied, 3.0 mM free Mg^2+.
Setting [14] is: wild-type, (+) 10 mM free biotin.

Values joined by “and” are separate entries in the source; they are usually repeats but may differ in a detail not shown here. Identical values can stand only once. Like-named read-outs stand apart in the source and are kept apart here.

As a reminder, the Vmax is the rate approached at saturating substrate. As for `CC(=O)SCCNC(=O)CCNC(=O)[C@H](O)C(C)(C)COP(=O)(O)OP(=O)(O)OC[C@H]1O[C@@H](n2cnc3c(N)ncnc32)[C@H](O)[C@@H]1OP(=O)(O)O` [acetyl-CoA, acetyl-coenzyme A, reference compound], the “decrease in rate caused by lack of acetyl-CoA” value in series [1] (full reverse reaction) was 78%; in series [5] (MgATP hydrolysis), 82%. Besides, the “kcat (specific activity), (+) acetyl-CoA” value in [1] (setting [10]) was 0.0139 ± 8.3e-05 s⁻¹; in [2] (setting [10]), 0.15 ± 0.00067 s⁻¹; in series [3] (setting [10]), 0.04 ± 0.0017 s⁻¹; in [4] (setting [10]), 11.7 ± 0.333 s⁻¹; in [5] (setting [10]), 0.043 ± 0.0015 s⁻¹. Also, the “% rate (−) acetyl-CoA compared to the specific activity in the presence of acetyl-CoA” value is given as 18% in series [1] (saturating substrates); 67% in [2] (saturating substrates); 100% in [3] (saturating substrates); 9% in series [4] (saturating substrates); 22% in series [5] (saturating substrates). For the same compound, the “effect of acetyl-CoA on the rate of MgADP phosphorylation by carbamoyl phosphate” value in series [3] was “no effect”. The “n acetyl-CoA (Hill coefficient)” value in [4] (setting [11]) worked out at 2.0 ± 0.3; in series [4] (setting [12]), 2.8 ± 0.5; in series [4] (setting [13]), 2.6 ± 0.2. The “Ka acetyl-CoA” value in series [4] (setting [11]) was 38 ± 2 µM; in series [4] (setting [12]), 26 ± 2 µM; in [4] (setting [13]) it was 10 µM and 10.0 ± 0.4 µM. The Vmax in [4] (setting [11]) came to 1.16 ± 0.07 µmol/mg/min; in series [4] (setting [12]), 1.39 ± 0.06 µmol/mg/min; in [4] (setting [13]) it was 5.7 ± 0.1 µmol/mg/min; in series [4] (acetyl-CoA varied, […] free Mg^2+) it was 2.59 ± 0.08 µmol/mg/min. The “overall fold decrease in the Ka for acetyl-CoA” value in series [4] (addition of 3.0 mM free Mg^2+) stood at 3.8 fold.
The Km is the substrate concentration at which the rate is half of its maximum. As to “K1119Q RePC mutant (Rhizobium etli CFN 42; K1119Q)”, the Km in [6] is 880 ± 70 µM.
`O=C(O)CCCC[C@@H]1SC[C@@H]2NC(=O)N[C@@H]21` [biotin]: the “fold increase in the catalytic efficiency” value in series [7] (10 mM free biotin added) is roughly 1000 fold. The “fold decrease in the Km for MgATP” value in series [7] (addition of 10 mM biotin) is listed as 35 fold.
`NC(=O)C(=O)O` [oxamate]: the “fold stimulation of the rate of oxaloacetate decarboxylation compared to the full reverse reaction” value in series [2] (saturating oxamate) was 11 fold.
For the compound `[Mg+2]` [Mg^2+], in series [3] (up to 11 mM Mg^2+), the “inhibition of the MgADP phosphorylation reaction by Mg^2+” value is reported as “no inhibition”. Besides, in [4], the “concentration of free Mg^2+ that inhibited pyruvate carboxylation” value is recorded as greater than 7 mM. Also, in series [4] (Mg^2+ increased from 0.5 to 3 mM, acetyl-CoA varied), the “fold increase in kcat” value was determined as 4.9 fold. The “Ka for Mg^2+ for the effect on Vmax” value in [4] (estimated from replot of apparent 1/Vmax vs. 1/[Mg^2+], pyruvate varied) was “≈ 40 mM”. Besides, the “concentration of free Mg^2+ that inhibited MgATP-cleavage” value in series [5] was greater than 7 mM.
In general, kcat refers to the number of substrate molecules converted per active site and unit of time at saturation. As to `CC(=O)OP(=O)(O)O` [Acetyl phosphate], the “% wild-type kcat/Km” value in [8] ((+) 10 mM free biotin) was determined as 57%; in [8] (no free biotin) it was 95%; in series [9] ((+) 10 mM free biotin), 40%; in [9] (no free biotin), 80%. Moreover, the Km in series [8] ((+) 10 mM free biotin) amounted to 370 ± 30 µM; in series [8] (no free biotin), 290 ± 10 µM; in series [3] (setting [14]), 140 ± 40 µM; in series [9] ((+) 10 mM free biotin), 140 ± 10 µM; in series [9] (no free biotin), 220 ± 10 µM. Also, the kcat turned out to be 0.00733 ± 0.00017 s⁻¹ in series [8] ((+) 10 mM free biotin); 0.00783 ± 0.00017 s⁻¹ in series [8] (no free biotin); 0.00483 ± 3.3e-05 s⁻¹ in series [3] (setting [14]); 0.002 ± 0.00017 s⁻¹ in [9] ((+) 10 mM free biotin); 0.005 ± 0.00017 s⁻¹ in series [9] (no free biotin). The “% kcat of pyruvate carboxylation” value in series [3] (phosphoryl donor varied, pH 7.5, 25° C, 0.25 mM acetyl-CoA) is on record as 0.1%.

Values taken from publication PMC3210919 (Biochemistry, 2011).
